Measured values reported in PubChem BioAssay (NCI).
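Abbreviation: GI50, concentration required for 50% inhibition of growth. Definition used: TGI = concentration required for complete inhibition of growth.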

What was measured:
Experiment in all cases: NCI-60 cell line screen, 384-well format
RPMI-8226 leukemia = tested on: RPMI-8226 leukemia
A549 NSCLC = tested on: A549 NSCLC
SK-MEL-28 melanoma = tested on: SK-MEL-28 melanoma
CCRF-CEM leukemia = tested on: CCRF-CEM leukemia
OVCAR-5 ovarian = tested on: OVCAR-5 ovarian
MCF7 breast = tested on: MCF7 breast
NCI-H460 NSCLC = tested on: NCI-H460 NSCLC
COLO 205 colon = tested on: COLO 205 colon
DU-145 prostate = tested on: DU-145 prostate
U251 glioblastoma = tested on: U251 glioblastoma
SK-MEL-5 melanoma = tested on: SK-MEL-5 melanoma
HOP-62 NSCLC = tested on: HOP-62 NSCLC
NCI-H226 lung = tested on: NCI-H226 lung
SK-OV-3 ovarian = tested on: SK-OV-3 ovarian
OVCAR-8 ovarian = tested on: OVCAR-8 ovarian
SF-268 CNS = tested on: SF-268 CNS
RXF 393 renal = tested on: RXF 393 renal
BT-549 breast = tested on: BT-549 breast
SR leukemia = tested on: SR leukemia
M14 melanoma = tested on: M14 melanoma
786-0 renal = tested on: 786-0 renal
NCI-H522 lung = tested on: NCI-H522 lung
HT29 colon = tested on: HT29 colon
MDA-MB-468 breast = tested on: MDA-MB-468 breast
OVCAR-3 ovarian = tested on: OVCAR-3 ovarian
HL-60(TB) leukemia = tested on: HL-60(TB) leukemia
HCT-15 colon = tested on: HCT-15 colon
SNB-75 CNS = tested on: SNB-75 CNS
MDA-MB-435 melanoma = tested on: MDA-MB-435 melanoma
ACHN renal = tested on: ACHN renal
IGROV1 ovarian = tested on: IGROV1 ovarian
UACC-257 melanoma = tested on: UACC-257 melanoma
A498 renal = tested on: A498 renal
CAKI-1 renal = tested on: CAKI-1 renal
EKVX NSCLC = tested on: EKVX NSCLC
NCI-H23 lung = tested on: NCI-H23 lung
OVCAR-4 ovarian = tested on: OVCAR-4 ovarian
MOLT-4 leukemia = tested on: MOLT-4 leukemia
HCC-2998 colon = tested on: HCC-2998 colon
NCI-H322M lung = tested on: NCI-H322M lung
SK-MEL-2 melanoma = tested on: SK-MEL-2 melanoma
KM12 colon = tested on: KM12 colon
MALME-3M melanoma = tested on: MALME-3M melanoma
HOP-92 NSCLC = tested on: HOP-92 NSCLC
TK-10 renal = tested on: TK-10 renal
T-47D breast = tested on: T-47D breast
PC-3 prostate = tested on: PC-3 prostate
HS 578T breast = tested on: HS 578T breast
SF-539 CNS = tested on: SF-539 CNS
MDA-MB-231 breast = tested on: MDA-MB-231 breast
UACC-62 melanoma = tested on: UACC-62 melanoma
HCT-116 colon = tested on: HCT-116 colon
SNB-19 CNS = tested on: SNB-19 CNS
K-562 leukemia = tested on: K-562 leukemia
SF-295 CNS = tested on: SF-295 CNS
NCI/ADR-RES ovarian = tested on: NCI/ADR-RES ovarian
SN12C renal = tested on: SN12C renal
UO-31 renal = tested on: UO-31 renal
SW-620 colon = tested on: SW-620 colon

Nc1nc(OCc2ccccc2)c2[nH]cnc2n1
GI50 (RPMI-8226 leukemia): 18.5 µM | TGI (RPMI-8226 leukemia): 37.8 µM | GI50 (A549 NSCLC): 64.5 µM | GI50 (SK-MEL-28 melanoma): 66.9 µM | GI50 (CCRF-CEM leukemia): 28.4 µM | TGI (CCRF-CEM leukemia): 88.9 µM | GI50 (OVCAR-5 ovarian): 70.4 µM | GI50 (MCF7 breast): 56.2 µM | GI50 (NCI-H460 NSCLC): 37.8 µM | GI50 (COLO 205 colon): 65.7 µM | GI50 (DU-145 prostate): 52.3 µM | GI50 (U251 glioblastoma): 38.3 µM | GI50 (SK-MEL-5 melanoma): 27.9 µM | GI50 (HOP-62 NSCLC): 36.7 µM | GI50 (NCI-H226 lung): 29.3 µM | TGI (NCI-H226 lung): 80.7 µM | GI50 (SK-OV-3 ovarian): 23.2 µM | TGI (SK-OV-3 ovarian): 50.1 µM | GI50 (OVCAR-8 ovarian): 66.4 µM | GI50 (SF-268 CNS): 66.3 µM | GI50 (RXF 393 renal): 32.5 µM | TGI (RXF 393 renal): 88.7 µM | GI50 (BT-549 breast): 26.9 µM | TGI (BT-549 breast): 78.5 µM | GI50 (SR leukemia): 30.9 µM | TGI (SR leukemia): 78.4 µM | GI50 (M14 melanoma): 30.4 µM | TGI (M14 melanoma): 95.8 µM | GI50 ([…]-0 renal): 35.9 µM | GI50 (NCI-H522 lung): 20.8 µM | TGI (NCI-H522 lung): 60.7 µM | GI50 (HT29 colon): 53.3 µM | GI50 (MDA-MB-468 breast): 25 µM | TGI (MDA-MB-468 breast): 61 µM | GI50 (OVCAR-3 ovarian): 69.1 µM | GI50 (HL-60(TB) leukemia): 30.2 µM | TGI (HL-60(TB) leukemia): 78.3 µM | GI50 (HCT-15 colon): 28.4 µM | GI50 (SNB-75 CNS): 19.6 µM | TGI (SNB-75 CNS): 76.5 µM | GI50 (MDA-MB-435 melanoma): 52.4 µM | GI50 (ACHN renal): 46.1 µM | GI50 (IGROV1 ovarian): 25.7 µM | TGI (IGROV1 ovarian): 90.5 µM | GI50 (UACC-257 melanoma): 61.6 µM | GI50 (A498 renal): 19.6 µM | TGI (A498 renal): 91.9 µM | GI50 (CAKI-1 renal): 20.8 µM | TGI (CAKI-1 renal): 55.9 µM | GI50 (EKVX NSCLC): 43.3 µM | GI50 (NCI-H23 lung): 31.8 µM | GI50 (OVCAR-4 ovarian): 64.4 µM | GI50 (MOLT-4 leukemia): 28.9 µM | GI50 (HCC-2998 colon): 30.8 µM | GI50 (NCI-H322M lung): 57.5 µM | GI50 (SK-MEL-2 melanoma): 37.2 µM | TGI (SK-MEL-2 melanoma): 65.8 µM | GI50 (KM12 colon): 66.1 µM | GI50 (MALME-3M melanoma): 30.9 µM | TGI (MALME-3M melanoma): 79.1 µM | GI50 (HOP-92 NSCLC): 36.8 µM | GI50 (TK-10 renal): 15.8 µM | TGI (TK-10 renal): 60.7 µM | GI50 (T-47D breast): 34.5 µM | GI50 (PC-3 prostate): 55.2 µM | GI50 (HS 578T breast): 16.6 µM | TGI (HS 578T breast): 43.7 µM | GI50 (SF-539 CNS): 34.7 µM | GI50 (MDA-MB-231 breast): 34.6 µM | GI50 (UACC-62 melanoma): 31.4 µM

O=C1CCC(N2Cc3cc(CNC(=O)C(F)(F)c4ccc(Cl)cc4)ccc3C2=O)C(=O)N1 (stereo not given)
GI50 (A549 NSCLC): > 100 µM | TGI (A549 NSCLC): > 100 µM | GI50 (SK-MEL-28 melanoma): > 100 µM | TGI (SK-MEL-28 melanoma): > 100 µM | GI50 (HCT-116 colon): > 100 µM | TGI (HCT-116 colon): > 100 µM | GI50 (CCRF-CEM leukemia): < 0.01 µM | TGI (CCRF-CEM leukemia): 0.015 µM | GI50 (OVCAR-5 ovarian): > 100 µM | TGI (OVCAR-5 ovarian): > 100 µM | GI50 (SNB-19 CNS): > 100 µM | TGI (SNB-19 CNS): > 100 µM | GI50 (NCI-H460 NSCLC): > 100 µM | TGI (NCI-H460 NSCLC): > 100 µM | GI50 (COLO 205 colon): 0.142 µM | TGI (COLO 205 colon): > 100 µM | GI50 (K-562 leukemia): 68.4 µM | TGI (K-562 leukemia): > 100 µM | GI50 (DU-145 prostate): > 100 µM | TGI (DU-145 prostate): > 100 µM | GI50 (U251 glioblastoma): > 100 µM | TGI (U251 glioblastoma): > 100 µM | GI50 (HOP-62 NSCLC): 0.835 µM | TGI (HOP-62 NSCLC): > 100 µM | GI50 (SK-OV-3 ovarian): > 100 µM | TGI (SK-OV-3 ovarian): > 100 µM | GI50 (OVCAR-8 ovarian): 0.059 µM | TGI (OVCAR-8 ovarian): > 100 µM | GI50 (SF-268 CNS): > 100 µM | TGI (SF-268 CNS): > 100 µM | GI50 (RXF 393 renal): > 100 µM | TGI (RXF 393 renal): > 100 µM | GI50 (BT-549 breast): 0.0613 µM | TGI (BT-549 breast): 32.2 µM | GI50 ([…]-0 renal): > 100 µM | TGI (786-0 renal): > 100 µM | GI50 (MDA-MB-468 breast): < 0.01 µM | TGI (MDA-MB-468 breast): 0.0301 µM | GI50 (SF-295 CNS): > 100 µM | TGI (SF-295 CNS): > 100 µM | GI50 (OVCAR-3 ovarian): > 100 µM | TGI (OVCAR-3 ovarian): > 100 µM | GI50 (HL-60(TB) leukemia): < 0.01 µM | TGI (HL-60(TB) leukemia): 0.0106 µM | GI50 (HCT-15 colon): 0.744 µM | TGI (HCT-15 colon): > 100 µM | GI50 (SNB-75 CNS): 0.463 µM | TGI (SNB-75 CNS): > 100 µM | GI50 (NCI/ADR-RES ovarian): 24.7 µM | TGI (NCI/ADR-RES ovarian): > 100 µM | GI50 (IGROV1 ovarian): 0.568 µM | TGI (IGROV1 ovarian): > 100 µM | GI50 (SN12C renal): > 100 µM | TGI (SN12C renal): > 100 µM | GI50 (UACC-257 melanoma): > 100 µM | TGI (UACC-257 melanoma): > 100 µM | GI50 (A498 renal): > 100 µM | TGI (A498 renal): > 100 µM | GI50 (CAKI-1 renal): > 100 µM | TGI (CAKI-1 renal): > 100 µM | GI50 (EKVX NSCLC): > 100 µM | TGI (EKVX NSCLC): > 100 µM | GI50 (NCI-H23 lung): > 100 µM | TGI (NCI-H23 lung): > 100 µM | GI50 (OVCAR-4 ovarian): > 100 µM | TGI (OVCAR-4 ovarian): > 100 µM | GI50 (MOLT-4 leukemia): < 0.01 µM | TGI (MOLT-4 leukemia): 0.0133 µM | GI50 (HCC-2998 colon): 0.0908 µM | TGI (HCC-2998 colon): > 100 µM | GI50 (NCI-H322M lung): > 100 µM | TGI (NCI-H322M lung): > 100 µM | GI50 (MALME-3M melanoma): 0.101 µM | TGI (MALME-3M melanoma): > 100 µM | GI50 (HOP-92 NSCLC): 0.21 µM | TGI (HOP-92 NSCLC): > 100 µM | GI50 (TK-10 renal): > 100 µM | TGI (TK-10 renal): > 100 µM | GI50 (T-47D breast): 0.0216 µM | TGI (T-47D breast): 17.8 µM | GI50 (HS 578T breast): 0.0781 µM | TGI (HS 578T breast): > 100 µM | GI50 (SF-539 CNS): > 100 µM | TGI (SF-539 CNS): > 100 µM | GI50 (MDA-MB-231 breast): 0.087 µM | TGI (MDA-MB-231 breast): > 100 µM | GI50 (UO-31 renal): > 100 µM | TGI (UO-31 renal): > 100 µM | GI50 (SW-620 colon): 0.0885 µM | TGI (SW-620 colon): > 100 µM
